Measured values: patent US8173627B2, “Neuroprotective effect of solubilized UDCA in focal ischemic model” (priority 2004, dated 2012)

Assay: HPLC bile acid analysis of plasma and brain
Format: in vivo, rat
Settings: after UDCA and TUDCA administration
Procedure: Rats were separated into 5 groups, and each received a single injection of vehicle (n=18), 25 mg s-UDCA/Kg (n=9), 100 mg UDCA/Kg (n=18), 400 mg UDCA/kg (n=9), and 400 mg TUDCA/kg (n=9) intravenously immediately after reperfusion.
Blood and brain were collected 1 hour after s-UDCA, TUDCA, or vehicle injection, and were assessed by HPLC for bile acid analysis. Briefly, whole blood was drawn, clotted, and centrifuged and plasma was separated and frozen. After appropriate, humane anesthesia (5% chloral hydrate) and transcardial phosphate buffer perfusion, brains were removed, flash-frozen, and stored at −70° C. Free UDCA concentrations were measured by HPLC (JASCO HPLC Bile Acids Analysis System). Bile acids were assessed by HPLC according to, for example, U.S. patent application Ser. No. 09/778,154 filed Feb. 5, 2001, the full disclosure of which is hereby incorporated by reference.

With `C[C@H](CCC(=O)NCCS(=O)(=O)O)[C@H]1CC[C@H]2[C@@H]3[C@@H](O)C[C@@H]4C[C@H](O)CC[C@]4(C)[C@H]3CC[C@]12C` [TUDCA, tauroursodeoxycholic acid] the “TUDCA detected in brain as well as blood” value was “not detected”.
